# According to patent publication US20230130766A1 (SALK INSTITUTE FOR BIOLOGICAL STUDIES, priority 2020, published 2023):
# Experiments:
# [1] = target: T1, ULK1 (Homo sapiens, UniProt O75385); assay: ULK1 inhibition assay; type: biochemical; conditions: * = tested as a mixture of regioisomers
# T1 sequence (O75385 1-1050): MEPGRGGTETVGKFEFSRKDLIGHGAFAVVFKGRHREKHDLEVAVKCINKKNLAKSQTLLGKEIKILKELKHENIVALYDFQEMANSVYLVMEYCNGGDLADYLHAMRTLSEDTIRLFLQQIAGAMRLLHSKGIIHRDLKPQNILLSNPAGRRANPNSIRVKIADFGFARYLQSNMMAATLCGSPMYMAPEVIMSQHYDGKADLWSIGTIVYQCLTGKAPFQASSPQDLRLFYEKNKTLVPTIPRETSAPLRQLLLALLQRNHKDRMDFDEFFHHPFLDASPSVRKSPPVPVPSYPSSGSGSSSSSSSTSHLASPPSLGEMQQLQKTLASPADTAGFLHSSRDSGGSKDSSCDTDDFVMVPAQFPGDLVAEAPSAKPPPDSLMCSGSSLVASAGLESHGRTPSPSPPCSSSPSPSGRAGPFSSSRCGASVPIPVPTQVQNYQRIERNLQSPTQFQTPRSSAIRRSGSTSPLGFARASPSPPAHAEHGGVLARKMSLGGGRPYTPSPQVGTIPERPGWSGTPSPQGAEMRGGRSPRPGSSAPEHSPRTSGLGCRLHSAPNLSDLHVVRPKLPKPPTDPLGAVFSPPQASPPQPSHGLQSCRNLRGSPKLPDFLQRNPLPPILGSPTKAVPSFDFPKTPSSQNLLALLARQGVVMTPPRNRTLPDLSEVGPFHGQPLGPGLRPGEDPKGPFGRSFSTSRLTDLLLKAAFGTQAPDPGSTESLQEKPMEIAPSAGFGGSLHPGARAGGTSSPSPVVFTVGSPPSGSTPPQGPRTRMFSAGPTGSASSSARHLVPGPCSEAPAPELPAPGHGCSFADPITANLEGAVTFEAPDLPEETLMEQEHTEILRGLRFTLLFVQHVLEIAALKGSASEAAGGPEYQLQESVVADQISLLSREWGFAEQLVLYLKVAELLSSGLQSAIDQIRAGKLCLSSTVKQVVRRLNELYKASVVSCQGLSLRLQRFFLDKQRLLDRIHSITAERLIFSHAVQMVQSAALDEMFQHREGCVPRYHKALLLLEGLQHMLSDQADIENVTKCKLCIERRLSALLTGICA
# [2] = tested on: MDA-MB-468 cells expressing mCherry-EGFP-LC3; assay: Autophagic flux by flow cytometry; type: cell-based; conditions: 48 h
# Procedure: To investigate the mechanism by which Compound 349 potentiates the cytotoxic effects of PARP inhibitors, MDA-MB-468 cells expressing mCherry-EGFP-LC3 were treated with olaparib (30 μM) and/or Compound 349 (10 μM) for 48 h and then quantified for autophagic flux. For these experiments, MDA-MB-468 cells stably expressing the mCherry-GFP-LC3 fusion protein were plated in 6-well plates at a density of 6×10^5 cells/well in growth media DMEM/F12+GlutaMAX-1 (Gibco) supplemented with 10% FBS (Gibco) and 1× Anti-Anti (Gibco) and allowed to grow overnight. Cells were treated, trypsinized, and then resuspended in PBS, and analytical cytometry was performed using an LSRFortessa 14-color (BD Biosciences) with a 488 nm and […] laser. For flow cytometry, wild type MDA-MB-468 cells were used as the unstained control, and MDA-MB-468 cells expressing either mCherry or GFP were used for comparison. Events of 10,000 were collected for each sample.
# [3] = tested on: MDA-MB-468 cells; assay: CellTiter-Glo cell viability dose-response matrix, synergy by Combenefit (Loewe model); type: cell-based; conditions: 72 h; for concentrations at which significant synergy was observed: combination of Compound 349 and olaparib
# Procedure: Different concentrations of Compound 349 with olaparib (FIG. 13A) were tested to measure the combined effect of inhibiting both ULK1/2 and PARP. For these experiments, MDA-MB-468 cells were treated with Compound 349 (0-15 μM) and olaparib (0-15 μM) in a dose-response matrix for 72 h, and cell viability was assessed by a CellTiter-Glo assay, and the synergistic effect was analyzed with Combenefit using the Loewe model.
# [4] = tested on: A549 cells; assay: A549 xenograft large tumors, ULK inhibitor alone versus carboplatin; type: in vivo, nude mice; conditions: A549 large tumors (over 200 mm^3 at start); carboplatin 25 mg/kg every three days; day 72
# Procedure: A549 cells (5M cells) were injected bilaterally into the flanks of forty-six nude mice to create tumor xenografts in order to assess the efficacy of Compound 14 in treating larger non-small cell lung cancer tumors compared to carboplatin, the current standard of care therapy for non-small cell lung cancer. After 40 days of letting tumor cells proliferate (at which point tumors were over 200 mm^3 in volume), administration of carboplatin or Compound 14 was initiated. One cohort of twelve mice received 20 mg/kg twice daily doses of Compound 14, one cohort of ten mice received 30 mg/kg twice daily doses of Compound 14, one cohort of seven mice received 25 mg/kg doses of carboplatin every three days, one cohort of seven mice received 40 mg/kg once daily doses of Compound 14, and the remaining ten mice were treated with vehicle. Treatment and monitoring was continued until day 72 post inoculation of tumor cells (32 days of treatment).
# [5] = tested on: A549 cells; assay: A549 xenografts, ULK inhibitor alone and in combination with carboplatin; type: in vivo, nude mice
# Procedure: A549 cells (5M cells) were injected bilaterally into the flanks of thirty-six nude mice to create tumor xenografts in order to assess the efficacy of Compound 14 in treating non-small cell lung cancer tumors both alone and in combination with carboplatin, the current standard of care therapy for non-small cell lung cancer. After 11 days of letting tumor cells proliferate (at which point tumors were ˜50 mm^3 in volume), administration of carboplatin, Compound 14, or combinations began. One cohort of six mice received 20 mg/kg twice daily doses of Compound 14 alone, one cohort of six mice received 30 mg/kg twice daily doses of Compound 14 alone, one cohort of six mice received 25 mg/kg doses of carboplatin every three days, one cohort of six mice received 20 mg/kg twice daily doses of Compound 14 in conjunction with 25 mg/kg doses of carboplatin every three days, one cohort of six mice received 30 mg/kg twice daily doses of Compound 14 in conjunction with 25 mg/kg doses of carboplatin every three days, and the remaining six mice were treated with vehicle. Treatment and monitoring was continued until day 53 post inoculation of tumor cells (42 days of treatment).
# [6] = tested on: MIA PaCa-2 cells; assay: MIA PaCa-2 xenografts, ULK inhibitor alone versus gemcitabine; type: in vivo, nude mice; conditions: day 42, Compound 14 20 mg/kg twice daily, gemcitabine dose not given
# Procedure: MIA PaCa-2 cells were injected bilaterally into the flanks of nude mice to create tumor xenografts in order to assess the efficacy of Compound 14 in treating pancreatic cancer tumors compared to gemcitabine, a current standard of care therapy for pancreatic cancer. After 3 days of letting tumor cells proliferate (at which point tumors were ˜100 mm^3 in volume), administration of gemcitabine or Compound 14 was initiated. One cohort received 20 mg/kg twice daily doses of Compound 14, one cohort received gemcitabine, and the remaining cohort was treated with vehicle. Treatment and monitoring were continued until day 42 post inoculation of tumor cells (30 days of treatment).
smiles,measurement,setting,value
COc1ccc(Nc2ncc(C(F)(F)F)c(NC3CC3)n2)cc1OC [Compound 349],IC50,[1],< 200 nM
same,olaparib-induced increase in autophagic flux,[2]; Compound 349 10 μM concomitant with olaparib 30 μM,significantly suppressed the olaparib-induced increase in autophagic flux to a level similar to that observed in untreated control cells
same,antiproliferative synergy,[3]; Compound 349 (0-15 μM) with olaparib (0-15 μM),strong antiproliferative synergy
same,maximum synergy score,"[3]; Compound 349 (0-15 μM) with olaparib (0-15 μM), Loewe model",34
same,concentrations at which significant synergy was observed,[3],0.021 to 15 µM
"N.N.O=C([O-])C1(C(=O)[O-])CCC1.[Pt+2] [carboplatin, reference compound]",tumor volume by the end of the study,[4],above 500 mm^3
same,final tumor average volume,"[5]; carboplatin 25 mg/kg every three days alone, day 53",~200 mm^3
same,tumor growth compared to the control,"[5]; monotherapy: carboplatin 25 mg/kg every three days, Compound 14 20 mg/kg twice daily",markedly reduced growth compared to the control
"Nc1ccn([C@@H]2O[C@H](CO)[C@@H](O)C2(F)F)c(=O)n1 [gemcitabine, reference compound]",final tumor volume,[6],~800 mm^3
"O=C(c1cc(Cc2n[nH]c(=O)c3ccccc23)ccc1F)N1CCN(C(=O)C2CC2)CC1 [olaparib, reference compound]",increase in autophagic flux compared with control cells,[2]; olaparib 30 μM alone,approximately 30%
same,concentrations at which significant synergy was observed,[3],3.8 to 15 µM
